Reference: patent US20130266663A1, “SOX9 INHIBITORS” (priority 2010, published 2013)

Assays:
[1] = test system: SOX9; test: SOX9 luciferase reporter assay in transfected astrocytes; type: cell-based, rat; settings: cultured rat astrocytes, 24 h treatment
From the text: Cultures early after plating bear characteristics of immature and reactive astroctyes associated with acute damage. In this assay, primary astrocytes are transfected with a SOX9 reporter construct that consists of 4 repeats of the SOX9 binding site coupled to the mouse Col2a1 minimal promoter cloned upstream of a luciferase gene in the plasmid pGL4, as previously described in WO 2008/049226. After normalization for transfection efficiency, SOX9 activity can be monitored in transfected astrocytes by luciferase activity. Cells transfected with the SOX9 reporter construct were cultured in the presence and absence of potential inhibitors for 24 hours at which time the cells were lysed and luciferase levels measured. Compounds that reduced the levels of luciferase activity relative to control wells were considered as positive “hits”. In a secondary screen, false positives that cause a reduction in luciferase activity due to effects on cell viability, were eliminated using a cell viability assay (CellTiter-Flour—Promega). Subsequent to secondary screening, the “hits” were evaluated for their affect on SOX9 target gene expression by Q-PCR studies in primary astrocytes.
The utility of calmodulin antagonists (inhibitor) to decrease SOX9 target gene expression was evaluated in cultured rat astrocytes transfected with pGL4.1 4×48 Col2a1 prepared as described in Example 1. This plasmid contains 4-48 bp SOX9-binding sites from the Col2A1 enhancer which promote luciferase reporter gene expression in cells where SOX9 is active i.e. in the nucleus. The day after transfection, cells were treated for 24 h with inhibitor in concentrations as described below and in FIG. 5 before the luciferase assay was performed.
In this example, the potential of compounds that modulate calcium channels to modulate SOX9 activity is tested. The compounds were evaluated in cultured rat astrocytes transfected with pGL4.1 4×48 Col2a1. The day after transfection, cells were treated for 24 h with selected inhibitors before the luciferase assay was performed.
Antagonists to TRPV4 cation channel were tested to determine their ability to decrease the activity of SOX9 in astrocytes. The effect of TRPV4 antagonists on SOX9 function was evaluated in cultured rat astrocytes transfected with pGL4.1 4×48 Col2a1. The day after transfection, cells were treated for 24 h with 2-APB (100 μM) or ruthenium red (10 μM) before the luciferase assay was performed. […] With respect to SOX9 target genes, Q-PCR analysis of aged primary astrocyte cultures was performed to determine the impact of the TRPV4 antagonists on SOX9. […] Collagen IV is a significant scarring extracellular matrix produced by astrocytes and contributing to the inhibitory properties of the glial scar.

[2] = test system: SOX9 target genes; test: Q-PCR of SOX9 target gene expression in aged primary astrocyte cultures; type: cell-based, rat
From the text: Another approach to modulating the capacity of calmodulin to transport SOX9 into the nucleus is via competitive inhibition of calmodulin binding. To that effect, a novel peptide (SOX-CAL) was generated to specifically block the calmodulin SOX9 binding site. The SOX-CAL peptide sequence, […] (SEQ ID NO.8), corresponds with the calmodulin binding sequence in SOX9. To ensure the peptide's entry into the cell, it was synthesized fused to the protein transduction domain of the HIV-1 Tat protein. […] This analysis was performed in contrast to the control FLAG-TAT peptide.
Antagonists to TRPV4 cation channel were tested to determine their ability to decrease the activity of SOX9 in astrocytes. The effect of TRPV4 antagonists on SOX9 function was evaluated in cultured rat astrocytes transfected with pGL4.1 4×48 Col2a1. The day after transfection, cells were treated for 24 h with 2-APB (100 μM) or ruthenium red (10 μM) before the luciferase assay was performed. The broad-spectrum transient receptor potential (TRP) channel antagonist 2-APB inhibited SOX9 activity by ˜70%, while the vanniloid subfamily-specific TRP antagonist ruthenium red inhibited SOX9 activity by ˜25%. With respect to SOX9 target genes, Q-PCR analysis of aged primary astrocyte cultures was performed to determine the impact of the TRPV4 antagonists on SOX9. Treatment with ruthenium red specifically reduces aggrecan and Col4a expression by 40% and 50%, respectively (FIG. 6B), while 2-APB reduces XT-1, HAPLN1, aggrecan, Col2a, and Col4a by 50%, 70%, 80%, 50%, and 60% respectively (FIG. 6B, C), in rat primary astrocytes after a 48 hour exposure (n=3). […] Based on the role that the TRP channels serve in modulating calcium levels, and therefore calmodulin activity, the effect of the TRP channel blockers on SOX9 activity appears to be indirect.

CN(C)CCCN1c2ccccc2Sc2ccc(Cl)cc21 [chlorpromazine]
concentration at which the decrease in luciferase reporter activity is optimized / maximal [1]: 20 µM
luciferase reporter activity (SOX9 activity) ([1]; various concentrations (FIG. 5)): apparent dose dependent response to limiting luciferase expression
expression of C4ST ([2]; 20 uM, 48 hours, vs vehicle): significantly reduced
expression of XT1 ([2]; 20 uM, 48 hours, vs vehicle): significantly reduced
expression of XT2 ([2]; 20 uM, 48 hours, vs vehicle): significantly reduced
SOX9 target genes expression ([2]; longer treatments (1 week)): even more profound reductions
